Target: T1, Hyaluronidase (Bos taurus, UniProt Q8SQG8+Q5E985)
T1 sequence (Q8SQG8 whole entry): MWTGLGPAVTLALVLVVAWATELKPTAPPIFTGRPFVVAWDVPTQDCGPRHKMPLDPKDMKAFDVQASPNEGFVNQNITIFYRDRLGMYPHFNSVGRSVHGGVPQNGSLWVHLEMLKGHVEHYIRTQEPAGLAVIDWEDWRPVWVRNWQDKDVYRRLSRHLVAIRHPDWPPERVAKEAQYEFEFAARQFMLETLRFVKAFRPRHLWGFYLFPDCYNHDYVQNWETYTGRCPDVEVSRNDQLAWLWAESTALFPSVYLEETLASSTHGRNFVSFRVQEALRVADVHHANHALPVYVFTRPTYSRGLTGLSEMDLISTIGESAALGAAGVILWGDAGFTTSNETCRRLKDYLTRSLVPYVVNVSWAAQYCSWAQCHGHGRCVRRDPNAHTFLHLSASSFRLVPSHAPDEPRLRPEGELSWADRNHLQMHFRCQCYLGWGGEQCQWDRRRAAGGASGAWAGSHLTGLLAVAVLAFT
T1 sequence (Q5E985 whole entry): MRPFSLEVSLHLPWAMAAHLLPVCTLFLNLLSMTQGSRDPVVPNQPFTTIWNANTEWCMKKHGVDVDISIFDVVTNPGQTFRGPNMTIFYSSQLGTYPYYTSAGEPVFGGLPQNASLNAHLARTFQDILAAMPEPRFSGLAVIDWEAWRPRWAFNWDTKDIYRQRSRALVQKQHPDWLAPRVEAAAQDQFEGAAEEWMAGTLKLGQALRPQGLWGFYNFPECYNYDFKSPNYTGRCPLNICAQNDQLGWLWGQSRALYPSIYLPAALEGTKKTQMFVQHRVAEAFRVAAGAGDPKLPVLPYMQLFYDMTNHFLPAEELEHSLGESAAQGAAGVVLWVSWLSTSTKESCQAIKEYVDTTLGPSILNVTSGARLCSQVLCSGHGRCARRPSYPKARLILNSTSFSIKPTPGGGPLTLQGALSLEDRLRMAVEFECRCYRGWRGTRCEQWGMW
Test: Inhibition of bovine testes hyaluronidase after 30 mins at pH 5 by turbidimetric analysis
Format: protein assay

## Oc1ccc(-c2[nH]c3ccccc3c2-c2ccccc2)cc1
  IC50: 107 µM

Source: ChEMBL document CHEMBL1817567, “Design of benzimidazole- and benzoxazole-2-thione derivatives as inhibitors of bacterial hyaluronan lyase” (Eur J Med Chem, 2011)
